According to patent US20090131356A1, “miR-15, miR-26, miR-31, miR-145, miR-147, miR-188, miR-215, miR-216, miR-331, mmu-miR-292-3P REGULATED GENES AND PATHWAYS AS TARGETS FOR THERAPEUTIC INTERVENTION” (ASURAGEN, INC., priority 2006, published 2009):

Assays:
Assay type in all cases: cell-based, human
H460 lung cancer cells = experiment: Alamar Blue proliferation assay of pair-wise miRNA combinations; details: for % proliferation: H460 cells, normalized to 600 pM negative control (NC) miRNA
Text: miRNAs function in multiple pathways controlling multiple cellular processes. Cancer cells frequently show aberrations in several different pathways which determine their oncogenic properties. Therefore, combinations of multiple miRNAs may provide a better therapeutic benefit rather than a single miRNA. The inventors assessed the efficacy of pair-wise miRNA combinations, administering hsa-miR-147 concurrently with hsa-miR-124a, hsa-miR-126, hsa-let7b, hsa-let-7c or hsa-let7g. H460 lung cancer cells were transiently reverse transfected in triplicates with each miRNA at a final concentration of 300 pM, totaling in 600 pM of oligonucleotide. As a negative control, 600 pM of negative control miRNA (pre-miR NC#2, Ambion) was used. To correlate the effect of various combinations with the effect of the sole miRNA, each miRNA at 300 pM was also combined with 300 pM negative control miRNA. Reverse transfection was carried using the following parameters: 7000 cells per 96 well, 0.15 μl lipofectamine2000 (Invitrogen) in 20 μl OptiMEM (Invitrogen), 100 μl total transfection volume. […] Cells were harvested 72 hours after transfection and subjected to Alamar Blue assays (Invitrogen). Alamar Blue values were normalized to the ones obtained from cells treated with 600 pM negative control miRNA. Data are expressed as % proliferation relative to negative control miRNA-treated cells.
As shown in FIG. 4 and Table 9, transfection of 300 pM hsa-miR-147 reduces proliferation of H460 cells by 23%. […] Additive activity of pair-wise combinations (e.g., hsa-miR-147 plus hsa-miR-124a) is defined as an activity that is greater than the sole activity of each miRNA (e.g., activity of hsa-miR-147 plus hsa-miR-124a>hsa-miR-147 plus NC AND activity of hsa-miR-147 plus hsa-miR-124a>hsa-miR-124a plus NC). Synergistic activity of pair-wise combinations is defined as an activity that is greater than the sum of the sole activity of each miRNA (e.g., activity of hsa-miR-147 plus hsa-miR-124a>SUM [activity of hsa-miR-147 plus NC AND activity of hsa-miR-124a plus NC]). […]

H596 cells = experiment: Alamar Blue proliferation assay, H596
Text: (§1) The inventors assessed the therapeutic effect of hsa-miR-147 for lung cancer by using 12 individual lung cancer cell lines. To measure cellular proliferation of lung cancer cells, the following parental non-small cell lung cancer (NSCLC) cells were used: cells derived from lung adenocarcinoma (A549, H1299, H522, H838, Calu-3, HCC827, HCC2935), cells derived from lung squamous cell carcinoma (H520, H226), cells derived from lung adenosquamous cell carcinoma (H596), cells derived from lung bronchioalveolar carcinoma (H1650), and cells derived from lung large cell carcinoma (H460). In addition to these parental cell lines, highly metastatic NSCLC cells were used that stably express the firefly luciferase gene: A549-luc, H460-luc, HCC827-luc, H1650-luc, H441-luc. Unlike the parental cell lines, these metastatic cells readily migrate to distant sites of the test animal and form metastases upon subcutaneous, orthotopic, or intravenous injection. Synthetic hsa-miR-147 or negative control miRNA was delivered via lipid-based transfection into A549, H1299, H522, H838, Calu-3, HCC827, HCC2935, H520, H596, H1650, H460, A549-luc, H460-luc, HCC827-luc, H1650-luc, H441-luc cells and via electroporation into H226 cells. Lipid-based reverse transfection was carried out in triplicates according to a published protocol and the following parameters: 5000-12000 cells per 96 well, 0.1-0.2 μl lipofectamine-2000 (Invitrogen, Carlsbad, Calif.) in 20 μl OptiMEM (Invitrogen), […] final concentration of miRNA in 100 μl (Ovcharenko et al., 2005). Electroporation of H226 cells was carried out using the BioRad GenePulserXcell™ instrument with the following settings: 5×10^6 cells with 5 μg miRNA in 200 μl OptiMEM, square wave pulse at 250 V for 5 ms. Electroporated H226 cells were seeded at 7000 cells per 96-well in a total volume of 100 μl. All cells except for Calu-3 cells were harvested 72 hours post transfection or electroporation for assessment of cellular proliferation. Calu-3 cells were harvested 10 days post transfection. […]

Calu-3 cells = experiment: Alamar Blue proliferation assay, Calu-3
Text: as §1

H460 cells = experiment: Alamar Blue proliferation assay, H460
Text: as §1

A549-luc cells = experiment: Alamar Blue proliferation assay, A549-luc
Text: as §1

H460-luc cells = experiment: Alamar Blue proliferation assay, H460-luc
Text: as §1

H1650 cells = experiment: Alamar Blue proliferation assay, H1650
Text: as §1

[1] = 30 nM, normalized to negative control miRNA (100% proliferation)
[2] = etoposide 10 μM, normalized to negative control miRNA (100%)
[3] = etoposide 50 μM, normalized to negative control miRNA (100%)

hsa-miR-147: Synthetic pre-miR-147 (Ambion AM17100; Dharmacon in vivo); mature sequence GUGUGUGGAAAUGCUUCUGC, MIMAT0000251, SEQ ID NO:114 (synthetic pre-miR (Ambion/Dharmacon), chemistry not given here; listed as Homo sapiens)
reduction of proliferation of H460 cells (H460 lung cancer cells; 300 pM single miRNA plus 300 pM negative control miRNA, 72 hours, vs 600 pM negative control miRNA): 23%
% proliferation (H596 cells; [1]): 91.60%
% proliferation (Calu-3 cells; [1]): 37.62%
% proliferation (H460 cells; [1]): 72.11%
% proliferation (A549-luc cells; [1]): 75.69%
% proliferation (H460-luc cells; [1]): 39.54%
% proliferation (H1650 cells; [1]): 84.61%

COc1cc([C@@H]2c3cc4c(cc3[C@@H](O[C@@H]3O[C@@H]5CO[C@@H](C)O[C@H]5[C@H](O)[C@H]3O)[C@H]3COC(=O)[C@H]23)OCO4)cc(OC)c1O [Etoposide, etoposide]
% proliferation (H460 lung cancer cells; etoposide 10 μM): 20.19%
% proliferation (H460 lung cancer cells; etoposide 50 μM): 14.94%
% proliferation (H596 cells; [2]): 88.75%
% proliferation (H596 cells; [3]): 73.39%
% proliferation (Calu-3 cells; [2]): 20.81%
% proliferation (Calu-3 cells; [3]): 13.53%
% proliferation (H460 cells; [2]): 32.13%
% proliferation (H460 cells; [3]): 27.82%
% proliferation (A549-luc cells; [2]): 8.56%
% proliferation (A549-luc cells; [3]): 0.72%
% proliferation (H460-luc cells; [2]): 15.04%
% proliferation (H460-luc cells; [3]): 2.34%
% proliferation (H1650 cells; [2]): 90.98%
% proliferation (H1650 cells; [3]): 60.31%
